The record followed here is patent US9365851B2, “Spalt-like transcription factor 4 (SALL4) and uses thereof” (National University of Singapore, priority 2011, dated 2016).

One data set concerns PTEN. Put plainly: PTEN expression upon SALL4 gene knockdown in HCC cells (qPCR, Western blot densitometry). It is filed as cell-based, human. Conditions: day 4 post-transduction. An excerpt:
FIGS. 26A-26C: PTEN repression as a mechanism of SALL4-induced HCC. (26A) qPCR analysis of PTEN expression upon SALL4 gene knockdown. […] E5 shRNA is a shRNA specifically targets SALL4. (26B) Western blot analysis of PTEN protein expression upon SALL4 gene knockdown using fractionated nuclear (N) and cytoplasmic […] lysates. A total cell lysate (T) was used for protein expression analysis too. SALL4 is exclusively present in cell nuclei (left). Densitometry analysis of total PTEN expression (top right) and cytoplasmic PTEN expression (bottom right).
PTEN expression upon SALL4 gene knockdown was investigated by qPCR and western blot.
On the technique in general: Quantitative PCR measures a nucleic acid by following its amplification.

The next data set has as its system PTEN/AKT pathway. Put plainly: PTEN/AKT pathway expression in KBM5 cells (Western blot). It is filed as cell-based. An excerpt:
To further evaluate the specificity of the SALL4/PTEN pathway, next investigated was whether wild type peptide treatment could affect the expression of PTEN and its downstream target, phosphorylated AKT (pAKT).
(In general: A western blot detects proteins with antibodies after separation by electrophoresis.)

A further data set has as its system SALL4. Put plainly: SALL4 RNA knock-down in primary AML cells (qRT-PCR). It is filed as cell-based, human. Conditions: qRT-PCR normalized to GAPDH. An excerpt:
FIG. 6: Down-regulation of SALL4 in primary AML led to cell death. (6A) Down-regulation of SALL4 in primary AML cells. The ability of shRNA constructs 7412 to knock down SALL4 mRNA in AML cells were confirmed by qRT-PCR with normalization to GAPDH. The expression of SALL4 RNA in AML cells that were infected with SALL4 shRNA (7412)-expressing retroviruses was reduced to 35% of those infected with scrambled pRS control vectors, a shRNA pRS against non-effective GFP sequence from OriGene Technologies, Inc., Rockville Md. (N=3, Error Bars: +/−SD). (6B) Increased apoptosis and cell death were observed via flow cytometry in AML cells upon SALL4 knock down by Annexin V/PI staining. Control scrambled shRNA-infected cells and SALL4 shRNA-infected cells were analyzed 24 to 48 h post transduction. Data were derived from four independent experiments. (6C-6F) Leukemia development in xenotransplant recipient mice. AML is defined as blast count more than 20% in peripheral blood and/or bone marrow with multiple organ involvements observed in recipient mice. Blasts were present in liver (6C, ×200), spleen (6D, ×200), and bone marrow (6E, ×200), and were human CD45 positive (6F). […]

For “CTATTTAGCCAAAGGCAAA (short hairpin RNA, chemistry and delivery not given here, further chemistry not given here) [E5 shRNA]”, the “increase of PTEN mRNA” value in the data set on PTEN stood at 16.5%. As for “H-MSRRKQAKPQHI-OH [wt peptide, MSRRKQAKPQHI]”, in the data set with PTEN/AKT pathway, the “levels of PTEN and pAKT” value was “little or no effect”.

With “GATGCCTTGAAACAAGCCAAGCTACCTCA (chemistry not given here) [compound 7412, SALL4 shRNA used in primary AML cells]”, in the data set on SALL4, the “SALL4 RNA expression relative to scrambled control” value is 35%.
